Results on 13 compounds are retold here after patent US8673951B2, “Isoxazoline-substituted benzamide compound and pesticide” (priority 2005, dated 2014).

Common to all, as to format: in vivo
Experiment [1] concerns cabbage moth (Plutella xylostella). Briefly: Insecticidal test against cabbage moth (Test Example 1). Particulars: foliar, 144 h, read-out: insecticidal rate (rate of dead insects).
Experiment [2] relates to common cutworm (Spodoptera litura). Briefly: Insecticidal test against common cutworm (Test Example 2). Particulars: in Brassica oleracea, foliar, 144 h, read-out: insecticidal rate (rate of dead insects). How it is done: A 10% emulsifiable concentrate (depending on the compounds, 10% wettable powder was applied for the test) of the compound of the present invention was diluted with water […] To the chemical solution was dipped leaves of cabbage for about 10 seconds, and after air-drying, they were placed in a laboratory dish, then 5-common cutworm (Spodoptera litura) in the stage of second instar larva per the dish were released therein, and the dish was covered with a lid and contained at a thermostat chamber at 25° C. […] Incidentally, the test was carried out with two districts.

Experiment [3] has as its system American dog tick (Dermacentor variabilis). Description: Insecticidal test against American dog tick (Test Example 20). The conditions noted are these: 96 h, thin film in laboratory dish, 0.1 μg/cm^2 (*), protonymph, after 4 days, read-out: insecticidal rate (rate of dead insects). How it is done: After 400 μl of acetone solution in which 4 mg of the compound of the present invention was dissolved in 40 ml of acetone (concentration 100 ppm) was coated on the bottom face and side face of two laboratory dishes having an inner diameter of 5.3 cm, acetone was vaporized to prepare a thin film of the compound of the present invention on the inner wall of the laboratory dish. As the surface area of the inner wall is 40 cm^2, the treated dosage is […]. […] A number of dead insect(s) after 4 days was counted and a rate of dead insects was calculated by the calculation equation similar to that in Test Example 1. Incidentally, the test was carried out with one district.

For experiment [4], the system named is corn earworm (Helicoverpa armigera). Briefly: Insecticidal test against corn earworm, Comparative Example 1 (Test Example 23, Table 17). Particulars: cabbage leaf dip, third instar larva, after 6 days. The procedure: (§1) A 10% emulsifiable concentrate of the compound of the present invention or comparative compound was diluted with water containing a spreading agent to prepare a chemical solution with a prescribed concentration. To the chemical solution was dipped leaves of cabbage for about 10 seconds, and after air-drying, they were placed in a laboratory dish, then 7-corn earworm (Helicoverpa armigera) in the stage of third instar larva per the dish were released therein, and the dish was covered with a perforated lid and contained at a thermostat chamber at 25° C. Artificial feed (1 cm^3) was added after 2 days of treatment, and a number of dead insect(s) after 6 days was counted and a rate of dead insects was calculated by the following calculation equation. In the meantime, the test was carried out with two areas. Rate of dead insects (%)=(Number of dead insects/Number of released insects)×100 The rate of dead insects in each prescribed concentration of the compounds tested is shown in Table 17.

The test system of experiment [5] is oriental tea tortix (Homona magnanima). Description: Insecticidal test against oriental tea tortix, Comparative Example 2 (Test Example 24, Table 18). Particulars: cabbage leaf dip, third instar larva, after 6 days. The procedure: as §1, with “7-oriental tea tortix (Homona magnanima)” for “7-corn earworm (Helicoverpa armigera)”, “A” for “Artificial feed (1 cm^3) was added after 2 days of treatment, and a”, “18.” for “17.”

On to `Cc1cc(C2=NOC(c3cc(Cl)cc(Cl)c3)(C(F)(F)F)C2)ccc1C(=O)N(C(=O)C(C)C)c1ncc(Br)cn1` (stereo not drawn) [5-122, N-(5-Bromo-2-pyrimidinyl)-4-[5-(3,5-dichlorophenyl)-5-trifluoromethyl-4,5-dihydroisoxazole-3-yl]-N-isobutyryl-2-methyl benzoic acid amide], for which the pest or weed control at 10 ppm in experiment [1] and in experiment [2] was at least 80% each time. For the same compound, in experiment [3], the pest or weed control at 0.1 µg/cm2 was at least 80%.

With `CCN(C(=O)c1ccc(C2=NOC(c3cc(Cl)cc(Cl)c3)(C(F)(F)F)C2)cc1C)c1ccccc1` (stereo not drawn) [5-002, 4-[5-(3,5-Dichlorophenyl)-5-trifluoromethyl-4,5-dihydroisoxazole-3-yl]-N-ethyl-2-methyl benzoic acid anilide], the pest or weed control at 100 ppm in experiment [1] and in experiment [2] was at least 80% throughout. Besides, the pest or weed control at 0.1 µg/cm2 in experiment [3] is at least 80%.

`COC(=O)N(CC(F)(F)F)C(=O)c1ccc(C2=NOC(C(F)(F)F)C2c2cc(Cl)cc(Cl)c2)cc1C` (stereo not drawn) [Comparative Compound A, reference compound]: the “Rate of dead insects” value is recorded as 0% in experiment [4] (1 ppm), 0% in experiment [4] (3 ppm), 28.6% in experiment [4] (10 ppm) and 92.9% in experiment [4] (33 ppm).

Regarding `COC(=O)N(COC(C)=O)C(=O)c1ccc(C2=NOC(c3cc(Cl)cc(Cl)c3)(C(F)(F)F)C2)cc1C` (stereo not drawn) [3-033], the “Rate of dead insects” value in experiment [4] (1 ppm) stood at 7.1%; in experiment [4] (3 ppm) it was 50.0%; in experiment [4] (10 ppm), 100%; in experiment [4] (33 ppm), 100%.

For the compound `Cc1cc(C2=NOC(C(F)(F)F)C2c2cc(Cl)cc(Cl)c2)ccc1C(=O)Nc1ncccn1` (stereo not drawn) [Comparative Compound B, reference compound], the “Rate of dead insects” value was 0% in experiment [5] (0.1 ppm); 0% in experiment [5] (0.3 ppm); 7.1% in experiment [5] (1 ppm); 64.3% in experiment [5] (3 ppm); 100% in experiment [5] (10 ppm).

Take `CON=CN(C)C(=O)c1ccc(C2=NOC(c3cc(Cl)cc(Cl)c3)(C(F)(F)F)C2)cc1C` (stereo not drawn) [7-003, 4-[5-(3,5-Dichlorophenyl)-5-trifluoromethyl-4,5-dihydroisoxazole-3-yl]-N-(methoxyiminomethyl)-N-methyl-2-methylbenzoic acid amide]: in experiment [3], the pest or weed control at 0.1 µg/cm2 is at least 80%.

`CC(=O)N(C(=O)c1ccc(C2=NOC(c3cc(Cl)cc(Cl)c3)(C(F)(F)F)C2)cc1C)c1cncnc1` (stereo not drawn) [5-165]: the “Rate of dead insects” value in experiment [5] (0.1 ppm) is given as 14.3%; in experiment [5] (0.3 ppm) it was 57.1%; in experiment [5] (1 ppm), 92.9%; in experiment [5] (3 ppm) it was 100%; in experiment [5] (10 ppm), 100%.

With `COC(=O)NC(=O)c1ccc(C2=NOC(c3cc(Cl)cc(Cl)c3)(C(F)(F)F)C2)cc1C` (stereo not drawn) [2-003, Methyl N-[4-[5-(3,5-dichlorophenyl)-5-trifluoromethyl-4,5-dihydroisoxazole-3-yl]-2-methylbenzoyl]carbamate], the pest or weed control at 100 ppm in experiment [1] and in experiment [2] was at least 80% each time. Besides, the pest or weed control at 0.1 µg/cm2 in experiment [3] was at least 80%.

For the compound `CO/N=C\NC(=O)c1ccc(C2=NOC(c3cc(Cl)cc(Cl)c3)(C(F)(F)F)C2)cc1C` (stereo not drawn) [6-004, (Z)-4-[5-(3,5-Dichlorophenyl)-5-trifluoromethyl-4,5-dihydro-isoxazole-3-yl]-N-(methoxyiminomethyl)-2-methylbenzoic acid amide], the pest or weed control at 10 ppm in experiment [1] and in experiment [2] was at least 80% throughout. Moreover, the pest or weed control at 0.1 µg/cm2 in experiment [3] was at least 80%.

As to `CC(=O)N(C(=O)c1ccc(C2=NOC(c3cc(Cl)cc(Cl)c3)(C(F)(F)F)C2)cc1C)c1ncc(Cl)cn1` (stereo not drawn) [5-100, N-Acetyl-N-(5-chloro-2-pyrimidinyl)-4-[5-(3,5-dichlorophenyl)-5-trifluoromethyl-4,5-dihydroisoxazole-3-yl]-2-methyl benzoic acid amide], the pest or weed control at 100 ppm in experiment [1] and in experiment [2] was at least 80% in each case. The pest or weed control at 0.1 µg/cm2 in experiment [3] is at least 80%.

As to `CCON=CNC(=O)c1ccc(C2=NOC(c3cc(Cl)cc(Cl)c3)(C(F)(F)F)C2)cc1C` (stereo not drawn) [6-005, 4-[5-(3,5-Dichlorophenyl)-5-trifluoromethyl-4,5-dihydroisoxazole-3-yl]-N-(ethoxyimino-methyl)-2-methyl benzoic acid amide], the pest or weed control at 10 ppm in experiment [1] and in experiment [2] was at least 80% throughout. Besides, the pest or weed control at 0.1 µg/cm2 in experiment [3] is at least 80%.

Turning to `COCC(=O)N(C(=O)c1ccc(C2=NOC(c3cc(Cl)cc(Cl)c3)(C(F)(F)F)C2)cc1C)c1ncc(Cl)cn1` (stereo not drawn) [5-106, N-(5-Chloro-2-pyrimidinyl)-4-[5-(3,5-dichlorophenyl)-5-trifluoromethyl-4,5-dihydro-isoxazole-3-yl]-N-methoxyacetyl-2-methyl benzoic acid amide], the pest or weed control at 10 ppm in experiment [1] and in experiment [2] was at least 80% each time. Further, the pest or weed control at 0.1 µg/cm2 in experiment [3] is at least 80%.

Regarding `CON=CNC(=O)c1ccc(C2=NOC(c3cc(Cl)cc(C(F)(F)F)c3)(C(F)(F)F)C2)cc1C` (stereo not drawn) [6-037, 4-[5-(3-Chloro-5-trifluoromethylphenyl)-5-trifluoromethyl-4,5-dihydroisoxazole-3-yl]-N-(methoxyiminomethyl)-2-methyl benzoic acid amide], the pest or weed control at 10 ppm in experiment [1] and in experiment [2] was at least 80% each time.
